According to ChEMBL document CHEMBL1134707, “Orally active docetaxel analogue: synthesis of 10-deoxy-10-C-morpholinoethyl docetaxel analogues” (2001):
≈ marks a conversion by molar mass, not a printed value.

Assays:
[1] = test system: PC-6; experiment: Cytotoxic activity against PC-6 human small cell lung cancer; assay type: functional
[2] = test system: PC-6; experiment: Cytotoxic activity against PC-6/VCR29-9 vincristine resistant cell line expressing P-gp; assay type: functional; conditions: Homo sapiens
[3] = test system: PC-12; experiment: Cytotoxic activity against PC-12 human non-small cell lung cancer cell line
[4] = test system: PC-12; experiment: Cytotoxic activity against PC-12 human non-small cell lung cancer cell line; assay type: functional; conditions: Rattus norvegicus
[5] = test system: Mus musculus; experiment: Antitumor activity against B16 melanoma in mice at dose of 112.5 mg/kg by po administration and body weight loss is reported; assay type: functional
[6] = test system: Mus musculus; experiment: Antitumor activity against B16 melanoma in mice at dose of 22.2 mg/kg by iv administration and body weight loss is reported; assay type: functional
[7] = test system: Mus musculus; experiment: Antitumor activity against B16 melanoma in mice at dose of 22.2 mg/kg by po administration and body weight loss is reported; assay type: functional
[8] = test system: Mus musculus; experiment: Antitumor activity against B16 melanoma in mice at dose of 33.3 mg/kg by iv administration and body weight loss is reported; assay type: functional
[9] = test system: Mus musculus; experiment: Antitumor activity against B16 melanoma in mice at dose of 33.3 mg/kg by po administration and body weight loss is reported; assay type: functional
[10] = test system: Mus musculus; experiment: Antitumor activity against B16 melanoma in mice at dose of 50 mg/kg by iv administration and body weight loss is reported; assay type: functional
[11] = test system: Mus musculus; experiment: Antitumor activity against B16 melanoma in mice at dose of 50 mg/kg by po administration and body weight loss is reported; assay type: functional
[12] = test system: Mus musculus; experiment: Antitumor activity against B16 melanoma in mice at dose of 75 mg/kg by iv administration and body weight loss is reported; assay type: functional
[13] = test system: Mus musculus; experiment: Antitumor activity against B16 melanoma in mice at dose of 75 mg/kg by po administration and body weight loss is reported; assay type: functional
[14] = test system: Mus musculus; experiment: Antitumor activity against B16 melanoma in mice at dose of 33.3 mg/kg by po administration and IR value is reported; assay type: functional
[15] = test system: Mus musculus; experiment: Antitumor activity against B16 melanoma in mice at dose of 50 mg/kg by iv administration and IR value is reported; assay type: functional
[16] = test system: Mus musculus; experiment: Antitumor activity against B16 melanoma in mice at dose of 50 mg/kg by po administration and IR value is reported; assay type: functional
[17] = test system: Mus musculus; experiment: Antitumor activity against B16 melanoma in mice at dose of 75 mg/kg by iv administration and IR value is reported; assay type: functional
[18] = test system: Mus musculus; experiment: Antitumor activity against B16 melanoma in mice at dose of 75 mg/kg by po administration and IR value is reported; assay type: functional
[19] = test system: Mus musculus; experiment: Antitumor activity against B16 melanoma at dose of 100 mg/kg by iv administration in mice and mortality rate is reported; assay type: functional
[20] = test system: Mus musculus; experiment: Antitumor activity against B16 melanoma at dose of 112.5 mg/kg by po administration in mice and mortality rate is reported; assay type: functional
[21] = test system: Mus musculus; experiment: Antitumor activity against B16 melanoma at dose of 22.2 mg/kg by po administration in mice and mortality rate is reported; assay type: functional
[22] = test system: Mus musculus; experiment: Antitumor activity against B16 melanoma at dose of 33.3 mg/kg by iv administration in mice and mortality rate is reported; assay type: functional
[23] = test system: Mus musculus; experiment: Antitumor activity against B16 melanoma at dose of 33.3 mg/kg by po administration in mice and mortality rate is reported; assay type: functional
[24] = test system: Mus musculus; experiment: Antitumor activity against B16 melanoma at dose of 50 mg/kg by iv administration in mice and mortality rate is reported; assay type: functional
[25] = test system: Mus musculus; experiment: Antitumor activity against B16 melanoma in mice at dose of 112.5 mg/kg by po administration and IR value is reported; assay type: functional
[26] = test system: Mus musculus; experiment: Antitumor activity against B16 melanoma at dose of 50 mg/kg by po administration in mice and mortality rate is reported; assay type: functional
[27] = test system: Mus musculus; experiment: Antitumor activity against B16 melanoma at dose of 75 mg/kg by iv administration in mice and mortality rate is reported; assay type: functional
[28] = test system: Mus musculus; experiment: Antitumor activity against B16 melanoma at dose of 75 mg/kg by po administration in mice and mortality rate is reported; assay type: functional
[29] = test system: Mus musculus; experiment: Antitumor activity against B16 melanoma in mice at dose of 22.2 mg/kg by iv administration and IR value is reported; assay type: functional
[30] = test system: Mus musculus; experiment: Antitumor activity against B16 melanoma in mice at dose of 22.2 mg/kg by po administration and IR value is reported; assay type: functional
[31] = test system: Mus musculus; experiment: Antitumor activity against B16 melanoma in mice at dose of 33.3 mg/kg by iv administration and IR value is reported; assay type: functional
[32] = test system: Mus musculus; experiment: Antitumor activity against B16 melanoma in mice at dose of 100 mg/kg by iv administration and body weight loss is reported; assay type: functional
[33] = test system: Mus musculus; experiment: Antitumor activity against B16 melanoma in mice at dose of 600 mg/kg by po administration and body weight loss is reported; assay type: functional
[34] = test system: Mus musculus; experiment: Antitumor activity against B16 melanoma in mice at dose of 600 mg/kg by po administration and IR value is reported; assay type: functional
[35] = test system: Mus musculus; experiment: Antitumor activity against B16 melanoma in mice at dose of 100 mg/kg by iv administration and IR value is reported; assay type: functional
[36] = test system: Mus musculus; experiment: Antitumor activity against B16 melanoma at dose of 600 mg/kg by po administration in mice and mortality rate is reported; assay type: functional

**Q.** Which GI50 [1] does the source give for `CC(=O)O[C@@]12CO[C@@H]1C[C@@H](F)[C@@]1(C)C(=O)[C@H](CCN3CCOCC3)C3=C(C)[C@@H](OC(=O)[C@H](O)[C@@H](NC(=O)OC(C)(C)C)c4ccccc4)C[C@@](O)([C@@H](OC(=O)c4ccccc4)C12)C3(C)C` (some centres not stated) here?
**A.** 0.379 ng/mL (≈ 0.418 nM)

**Q.** What about the GI50 [2] of the same molecule?
**A.** 16.2 ng/mL (≈ 17.9 nM)

**Q.** And the GI50 [3]?
**A.** 2.55 ng/mL (≈ 2.81 nM)

**Q.** Which GI50 [1] does the source give for `CC(=O)O[C@@]12CO[C@@H]1C[C@H](O)[C@@]1(C)C(=O)[C@H](CCN3CCOCC3)C3=C(C)[C@@H](OC(=O)[C@H](O)[C@@H](NC(=O)OC(C)(C)C)c4ccccc4)C[C@@](O)([C@@H](OC(=O)c4ccccc4)[C@H]21)C3(C)C` here?
**A.** 1.72 ng/mL (≈ 1.9 nM)

**Q.** What about the GI50 [2] of the same molecule?
**A.** 76.3 ng/mL (≈ 84.3 nM)

**Q.** And the GI50 [3]?
**A.** 21.5 ng/mL (≈ 23.8 nM)

**Q.** Which GI50 [1] does the source give for `CC(=O)O[C@@]12CO[C@@H]1C[C@H](OCF)C1(C)C(=O)[C@H](CCN3CCOCC3)C3=C(C)[C@@H](OC(=O)[C@H](O)[C@@H](NC(=O)OC(C)(C)C)c4ccccc4)C[C@@](O)([C@@H](OC(=O)c4ccccc4)C12)C3(C)C` (some centres not stated) here?
**A.** 0.246 ng/mL (≈ 0.263 nM)

**Q.** What about the GI50 [2] of the same molecule?
**A.** 40.4 ng/mL (≈ 43.1 nM)

**Q.** What about the GI50 [4] of the same molecule?
**A.** 1.5 ng/mL (≈ 1.6 nM)

**Q.** What does the source list for `CC(=O)O[C@@]12CO[C@@H]1C=C[C@@]1(C)C(=O)[C@H](CCN3CCOCC3)C3=C(C)[C@@H](OC(=O)[C@H](O)[C@@H](NC(=O)OC(C)(C)C)c4ccccc4)C[C@@](O)([C@@H](OC(=O)c4ccccc4)C12)C3(C)C` (some centres not stated)?
**A.** GI50 [1]: 0.5 ng/mL (≈ 0.564 nM); GI50 [2]: 18 ng/mL (≈ 20.3 nM); GI50 [3]: 0.824 ng/mL (≈ 0.929 nM)

**Q.** With `CC(=O)O[C@@]12CO[C@@H]1CC[C@@]1(C)C(=O)[C@H](CCN3CCOCC3)C3=C(C)[C@@H](OC(=O)[C@H](O)[C@@H](NC(=O)OC(C)(C)C)c4ccccc4)C[C@@](O)([C@@H](OC(=O)c4ccccc4)C12)C3(C)C` (some centres not stated) as the molecule, how does the GI50 [1] read?
**A.** 0.761 ng/mL (≈ 0.856 nM)

**Q.** What about the GI50 [2] of the same molecule?
**A.** 20.4 ng/mL (≈ 22.9 nM)

**Q.** And the GI50 [3]?
**A.** 1.47 ng/mL (≈ 1.65 nM)

**Q.** What does the source list for `CO[C@H]1C[C@H]2OC[C@@]2(OC(C)=O)[C@H]2[C@H](OC(=O)c3ccccc3)[C@]3(O)C[C@H](OC(=O)[C@H](O)[C@@H](NC(=O)OC(C)(C)C)c4ccccc4)C(C)=C([C@@H](CCN4CCOCC4)C(=O)[C@]12C)C3(C)C`?
**A.** BWL [5]: <20%; BWL [6]: 5.7%; BWL [7]: <0%; BWL [8]: 9.4%; BWL [9]: 0.9%; BWL [10]: 18%; BWL [11]: <1.7%; BWL [12]: 19.2%; BWL [13]: 5%; IR [14]: 82.8%; IR [15]: 98.6%; IR [16]: 96.2%; IR [17]: 99.4%; IR [18]: 98.3%; Mortality [19]: 0; Mortality [20]: 4; Mortality [21]: 0; Mortality [22]: 0; Mortality [23]: 0; Mortality [24]: 0; IR [25]: 99%; Mortality [26]: 0; Mortality [27]: 5; Mortality [28]: 0; IR [29]: 93.7%; IR [30]: 81.7%; IR [31]: 94.4%; GI50 [1]: 0.266 ng/mL (≈ 0.289 nM); GI50 [2]: 9.01 ng/mL (≈ 9.8 nM); GI50 [3]: 0.756 ng/mL (≈ 0.823 nM)

**Q.** For `CC(=O)O[C@@]12CO[C@@H]1CC1C[C@@]13C(=O)[C@H](CCN1CCOCC1)C1=C(C)[C@@H](OC(=O)[C@H](O)[C@@H](NC(=O)OC(C)(C)C)c4ccccc4)C[C@@](O)([C@@H](OC(=O)c4ccccc4)C32)C1(C)C` (some centres not stated), which GI50 [1] is on record?
**A.** 0.873 ng/mL (≈ 0.984 nM)

**Q.** What about the GI50 [2] of the same molecule?
**A.** 38.6 ng/mL (≈ 43.5 nM)

**Q.** And the GI50 [3]?
**A.** 3.56 ng/mL (≈ 4.01 nM)

**Q.** What does the source list for `CC(=O)O[C@@]12CO[C@@H]1C[C@H](O)[C@@]1(C)C(=O)[C@H](O)C3=C(C)[C@@H](OC(=O)[C@H](O)[C@@H](NC(=O)OC(C)(C)C)c4ccccc4)C[C@@](O)([C@@H](OC(=O)c4ccccc4)[C@H]21)C3(C)C.O.O.O` [DOCETAXEL]?
**A.** BWL [32]: <0%; BWL [33]: <0%; IR [34]: 6.2%; Mortality [19]: 0; IR [35]: 95.1%; Mortality [36]: 0; GI50 [1]: 0.408 ng/mL; GI50 [2]: 39.6 ng/mL; GI50 [3]: 11.7 ng/mL
